According to ChEMBL document CHEMBL1142485, “Axial chirality and affinity at the GABA(A) receptor of pyrimido[1,2-a][1,4]benzodiazepines and related compounds” (Bioorg Med Chem, 2008):
Several values for one entry are separate records, joined by “and”; a condition that tells them apart may be missing. Equal values may be shown once.

Molecular target: not listed separately
Experiment: Displacement of [3H]flunitrazepam from GABAA benzodiazepine receptor in rat brain membrane
Assay type: cell membranes
For `Cc1cc(=O)nc2n1-c1ccc(Cl)cc1C(c1ccccc1Cl)=NC2`, the IC50 was 8.77 nM and 1.5 nM and 4.35 nM.
Work on `CN1C(=O)CN=C(c2ccccc2)c2cc(Cl)ccc21` [DIAZEPAM] yielded an IC50 of 21.2 nM.
`Clc1ccc2c(c1)C(c1ccccc1)=NCc1nncn1-2` [ESTAZOLAM] gave an IC50 of 46.6 nM.
In the case of `Cc1cc(=O)n2c(n1)CN=C(c1ccccc1)c1cc(Cl)ccc1-2`, the IC50 is reported as 93.6 nM and 394 nM.
For `Cc1nnc2n1-c1ccc(Cl)cc1C(c1ccccc1Cl)=NC2` [TRIAZOLAM], the IC50 was 1.54 nM.

Species: Rattus norvegicus
Experiment: Displacement of [3H]flunitrazepam from GABAA benzodiazepine receptor in rat brain membrane at 10 uM
Assay type: cell membranes
`Cc1cc(=O)nc2n1-c1ccc(Cl)cc1/C(c1ccccc1)=N\CC2` gave an Activity of 24%.
Molecule `Cc1cc(=O)n2c(n1)CC/N=C(/c1ccccc1)c1cc(Cl)ccc1-2` has an Activity of -18%.
In the case of `Cc1cc(=O)n2c(n1)CN=C(c1ccccc1)c1cc(Cl)ccc1-2`, the Activity is reported as 17%.
